Test results as given in patent US20240207302A1, “ANTIVIRAL COMPOUNDS, METHODS FOR THE MANUFACTURING OF COMPOUNDS, ANTIVIRAL PHARMACEUTICAL COMPOSITION, USE OF THE COMPOUNDS AND METHOD FOR THE ORAL TREATMENT OF CORONAVIRUS INFECTION AND RELATED DISEASES THEREOF” (priority 2021, published 2024).
Like-named read-outs stand apart in the source and are kept apart here.

Columns and labels:
SARS-COV-2 [1] = assay: Combination with SARS-COV-2 nsp14 (exonuclease) inhibitors in Calu-3 cells, infectious virus titers; type: cell-based
[2] = Pharmacokinetics of MB-905 in three pre-formulations in mice; type: in vivo
Excerpt: FIG. 21. Pharmacokinetics of MB-905 in three pre-formulations in mice.
Thus, the pre-formulation was used for most subsequent in vivo studies.

[3] = Maximum tolerated dose (OECD 425) and tolerability; type: in vivo; settings: mice
Protocol: The present assay was designed to investigate the safety and tolerability of MB-905. For the MTD assay (OECD 425), mice (3 animals of each sex/group) were divided into five experimental groups and the up and down procedure was applied to which 175 mg/kg was used as the first dose. […] Mortality, morbidity, body weight, food consumption, general and detailed clinical signs of toxicity were evaluated. At necropsy, vital (brain, heart, liver, spleen, kidneys and adrenal glands) and reproductive organs (ovaries, testicles and epididymis) were carefully removed, weighed and stored for further analysis (if necessary).

SARS-COV-2 VoC gamma = type: in vivo, mice
[4] = Pharmacokinetics of MB-905 in plasma of mice
Excerpt: FIG. 8A to 8F. […] The number of animals is shown in each figure legends. The vertical lines represent the mean±the standard error deviation.
All animals were maintained under SPF (Specific Pathogen Frec) animal conditions and were obtained from CIEnP facility, whose breeding colonies were purchased from Charles River Laboratories (USA). […] The samples collected from each animal and at each collection time were processed and analyzed individually. For the analysis of plasma and lung, UPLC-MS/MS equipment was used, whose system consists of a Xevo TQS mass spectrometer with a triple-quadrupole mass analyzer, from Waters. The mass spectrometer is coupled to a high-performance liquid chromatograph (Acquity H-Class). The acquisition and treatment of the data were performed with the MassLynx software. […] The calculation of bioavailability was performed using the following equation: F (%)=[(Intravenous dose×oral AUC)/(Oral dose×Intravenous AUC)]×100.

[5] = target: human ERG potassium channel (ether-a-gogo-related gene, Kv11.1) (Homo sapiens, UniProt Q12809); assay: hERG FLIPR Potassium assay in HEK293 cells; settings: up to 300 μM
SARS-COV-2 [6] = assay: SARS-COV-2 viral RNA synthesis in Calu-3 cells (real time RT-PCR); type: cell-based; settings: 1.0 μM
[7] = Severe acute respiratory syndrome coronavirus 2, Calu-3, alone or in combination as labelled
[8] = mouse, plasma, po, 3 mg/kg, 5% Carboxymethylcellulose, 3 mg/kg (v.o.)
[9] = mouse, plasma, po, 3 mg/kg, 5% Tween80 + 95% PEG400, 3 mg/kg (p.o.)
[10] = mouse, plasma, po, 3 mg/kg, 5% ethanol, 30% Propylene Glycol, 45% PEG 400, 20% water, 3 mg/kg (v.o.)
[11] = mouse, plasma, po, 30 mg/kg, 5% Carboxymethylcellulose, 30 mg/kg (p.o.)
[12] = mouse, plasma, po, 30 mg/kg, 5% Tween80 + 95% PEG400, 30 mg/kg (p.o.)
[13] = mouse, plasma, po, 30 mg/kg, 5% ethanol, 30% Propylene Glycol, 45% PEG 400, 20% water, 30 mg/kg (p.o.)
[14] = mouse, plasma, po, 550 mg/kg, 5% ethanol, 30% Propylene Glycol, 45% PEG 400, 20% water, 550 mg/kg (p.o.)
[15] = 140 mg/kg/day alone and in combination with DTG
[16] = 140 mg/kg/day, vs untreated animals
[17] = both, CD1, mouse, plasma, iv, 3 mg/kg
[18] = both, CD1, mouse, plasma, po, 30 mg/kg

human ERG potassium channel (ether-a-gogo-related gene, Kv11.1), sequence (Q12809 whole entry): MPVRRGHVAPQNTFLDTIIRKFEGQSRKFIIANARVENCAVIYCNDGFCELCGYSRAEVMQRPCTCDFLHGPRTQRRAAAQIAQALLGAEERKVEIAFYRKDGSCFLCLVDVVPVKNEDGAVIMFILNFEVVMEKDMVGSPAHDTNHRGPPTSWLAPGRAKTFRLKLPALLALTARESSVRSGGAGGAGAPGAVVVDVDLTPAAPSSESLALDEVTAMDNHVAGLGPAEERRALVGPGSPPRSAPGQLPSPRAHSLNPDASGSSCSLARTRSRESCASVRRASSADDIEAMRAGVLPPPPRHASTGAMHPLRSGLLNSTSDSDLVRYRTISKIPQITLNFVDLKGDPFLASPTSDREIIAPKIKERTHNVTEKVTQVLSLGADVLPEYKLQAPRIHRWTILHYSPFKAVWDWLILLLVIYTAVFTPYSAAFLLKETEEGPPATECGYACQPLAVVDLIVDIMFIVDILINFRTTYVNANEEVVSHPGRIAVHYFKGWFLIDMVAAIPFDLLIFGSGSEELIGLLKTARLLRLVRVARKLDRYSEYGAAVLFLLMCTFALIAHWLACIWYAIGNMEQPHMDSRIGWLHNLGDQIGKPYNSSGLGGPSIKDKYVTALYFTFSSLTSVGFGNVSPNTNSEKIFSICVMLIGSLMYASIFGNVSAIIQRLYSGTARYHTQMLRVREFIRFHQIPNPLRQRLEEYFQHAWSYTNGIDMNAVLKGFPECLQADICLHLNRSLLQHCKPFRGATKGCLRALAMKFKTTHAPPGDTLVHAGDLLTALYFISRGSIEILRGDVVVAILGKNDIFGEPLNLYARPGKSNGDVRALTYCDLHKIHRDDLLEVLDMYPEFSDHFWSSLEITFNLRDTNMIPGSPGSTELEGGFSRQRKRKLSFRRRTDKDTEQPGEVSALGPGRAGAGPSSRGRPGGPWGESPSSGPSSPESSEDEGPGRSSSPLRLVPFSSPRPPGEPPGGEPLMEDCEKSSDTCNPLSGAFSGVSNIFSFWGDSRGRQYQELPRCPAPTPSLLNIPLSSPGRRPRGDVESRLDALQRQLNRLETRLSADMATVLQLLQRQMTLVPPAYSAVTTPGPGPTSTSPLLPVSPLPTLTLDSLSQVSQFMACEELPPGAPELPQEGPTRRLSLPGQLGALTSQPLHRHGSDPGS

## c1coc(CNc2ncnc3[nH]cnc23)c1 [MB-905, kinetin]
SARS-COV-2 [1]; [7]
  EC50: 0.3 µM
  EC90: 8 µM
SARS-COV-2 [1]; calu-3, drug 10 μM, raltegravir or dolutegravir 5 μM
  effect of co-treatment with raltegravir or dolutegravir (iEXO) on inhibition of SARS-COV-2: synergistic
[2]; 5% ethanol, 30% Propylene Glycol, 45% PEG 400, 20% water, 30 mg/kg (p.o.)
  Cmax: 569.97 ng/mL
[2]; 5% ethanol, 30% Propylene Glycol, 45% PEG 400, 20% water, 550 mg/kg (p.o.)
  Cmax: 1053.37 ng/mL
[2]; CD1, mouse, plasma, po, 3 mg/kg, 5% Carboxymethylcellulose, 3 mg/kg (v.o.)
  Tmax: 0.25 h
[2]; CD1, mouse, plasma, po, 3 mg/kg, 5% Carboxymethylcellulose, 3 mg/kg (v.o.), read-out: Cmax
  Cmax: 70.2 ng/mL
[2]; CD1, mouse, plasma, po, 3 mg/kg, 5% Tween80 + 95% PEG400, 3 mg/kg (p.o.)
  Tmax: 0.25 h
[2]; CD1, mouse, plasma, po, 3 mg/kg, 5% Tween80 + 95% PEG400, 3 mg/kg (p.o.), read-out: Cmax
  Cmax: 60.8 ng/mL
[2]; CD1, mouse, plasma, po, 3 mg/kg, 5% ethanol, 30% Propylene Glycol, 45% PEG 400, 20% water, 3 mg/kg (v.o.)
  Tmax: 0.25 h
[2]; CD1, mouse, plasma, po, 3 mg/kg, 5% ethanol, 30% Propylene Glycol, 45% PEG 400, 20% water, 3 mg/kg (v.o.), read-out: Cmax
  Cmax: 64 ng/mL
[2]; CD1, mouse, plasma, po, 30 mg/kg, 5% Carboxymethylcellulose, 30 mg/kg (p.o.)
  Tmax: 0.25 h
[2]; CD1, mouse, plasma, po, 30 mg/kg, 5% Carboxymethylcellulose, 30 mg/kg (p.o.), read-out: Cmax
  Cmax: 504 ng/mL
[2]; CD1, mouse, plasma, po, 30 mg/kg, 5% Tween80 + 95% PEG400, 30 mg/kg (p.o.)
  Tmax: 0.25 h
[2]; CD1, mouse, plasma, po, 30 mg/kg, 5% Tween80 + 95% PEG400, 30 mg/kg (p.o.), read-out: Cmax
  Cmax: 507 ng/mL
[2]; CD1, mouse, plasma, po, 300 mg/kg, 5% Carboxymethylcellulose, 300 mg/kg (p.o.)
  Tmax: 8 h
[2]; CD1, mouse, plasma, po, 300 mg/kg, 5% Carboxymethylcellulose, 300 mg/kg (p.o.), read-out: Cmax
  Cmax: 1020 ng/mL
[2]; CD1, mouse, plasma, po, 300 mg/kg, 5% Tween80 + 95% PEG400, 300 mg/kg (p.o.)
  Tmax: 0.25 h
[2]; CD1, mouse, plasma, po, 300 mg/kg, 5% Tween80 + 95% PEG400, 300 mg/kg (p.o.), read-out: Cmax
  Cmax: 1030 ng/mL
[2]; [8]
  AUC: 107 ng·h/mL
  half-life: 2.18 h
[2]; [9]
  AUC: 153 ng·h/mL
  half-life: 2.63 h
[2]; [10]
  AUC: 98.4 ng·h/mL
  half-life: 1.92 h
[2]; [11]
  AUC: 525 ng·h/mL
  half-life: 1.67 h
[2]; [12]
  AUC: 1110 ng·h/mL
  half-life: 2.27 h
[2]; [13]
  AUC: 763 ng·h/mL
  Tmax: 0.25 h
  half-life: 3.61 h
[2]; mouse, plasma, po, 300 mg/kg, 5% Carboxymethylcellulose, 300 mg/kg (p.o.)
  AUC: 14800 ng·h/mL
[2]; mouse, plasma, po, 300 mg/kg, 5% Tween80 + 95% PEG400, 300 mg/kg (p.o.)
  AUC: 11500 ng·h/mL
[2]; [14]
  AUC: 11600 ng·h/mL
  Tmax: 1 h
  half-life: 8.63 h
[3]; both sexes, mouse, in vivo, oral, MTD study
  NOAEL at 7 days: 550 mg/kg
[3]; 1,150 mg/kg oral
  clinical signs: piloerection, reduced touch response, prostration, loss of grasping strength, decrease in body temperature and death
  death after compound administration, time: ≤ 4 h
[3]; 175, 550 and 850 mg/kg oral
  clinical signs: did not result in any observable clinical signs indicating toxicity
  morbidity and mortality: did not result in any signs indicative of toxicity
[3]; single 175, 550 or 850 mg/kg
  body weight change and food consumption: not observed any significant change
[3]; single oral 175, 550 or 850 mg/kg
  organs weight: did not show any changes
SARS-COV-2 VoC gamma; [15]
  body weight: sustain their masses beyond the threshold of euthanasia
  overall clinical scores: improved
SARS-COV-2 VoC gamma; 140 mg/kg/day with or without DTG
  virus RNA levels in the lungs: did not alter
SARS-COV-2 VoC gamma; 140 mg/kg/day with or without DTG, BAL
  infectious titers: decreased significantly
SARS-COV-2 VoC gamma; [16]
  IL-6 in BAL: reduced
  KC in BAL: reduced
  TNF-α in BAL: reduced
  inflammatory cells counts in BAL: reduced
SARS-COV-2 VoC gamma; 70 mg/kg/day oral with DTG
  survival: Higher survival rates
SARS-COV-2 VoC gamma; 140 mg/kg/day oral, combined or not with DTG
  survival: Higher survival rates
SARS-COV-2 VoC gamma; alone or combined with DTG
  lung necrosis: reduced
[4]; [17]
  Cmax: 135 ng/mL
  Vd: 19.4 L/kg
[4]; [18]
  AUC(0-t): 366 ng·h/mL
  Cmax: 570 ng/mL
  half-life: 1.1 h
[4]; both, CD1, mouse, plasma, po, 550 mg/kg
  Cmax: 1050 ng/mL
[4]; mice plasma, 3 mg/kg (i.v.)
  AUCall: 66.41 ng·h/mL
  CL: 918.38 mL/min/kg
  Cmax: 155.16 ng/mL
  F: 100%
  Ke: 3.09 h⁻¹
  T1/2: 0.22 h
  Tmax: 4.98 min
  Vz: 19.04 L/kg
[4]; mice plasma, 3 mg/kg (i.v.), 3 mg/kg
  AUClast: 55.58 ng·h/mL
[4]; mice plasma, 30 mg/kg (v.o.)
  CL: 1060.15 mL/min/kg
  Ke: 0.62 h⁻¹
  Vz: 102.21 L/kg
[4]; mice plasma, 30 mg/kg (v.o.), 30 mg/kg
  F: 53,5%
[4]; mice plasma, 550 mg/kg (v.o.)
  Ke: 0.25 h⁻¹
[4]; mice plasma, 550 mg/kg (v.o.), 550 mg/kg
  F: 36.1%
[5]
  inhibition of potassium permeation through the hERG channel: about 20%
SARS-COV-2 [6]
  inhibition of SARS-COV-2 RNA synthesis: best profiles
